In PubChem BioAssay AID1963856 (Molecular Pharmacology Branch, DTP, NCI, 2024):
pIC50: −log10 of the molar value.

System: LG0567-F671-PDC KRAS tumor spheroid viability
Test: Anticancer human tumor LG0567-F671-PDC patient-derived lung adenocarcinoma cell line growth inhibition [KRAS2]
Settings: spheroids with HUVEC and MSC; for pIC50: curve of first compound; for viability, T/C: stronger effect = lower value
Procedure, shortened: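 KRAS-mutant tumor cells were grown as spheroids with HUVEC endothelial cells and human MSCs as stroma. Targeted agents were tested alone and with KRAS pathway inhibitors. Doses started at or near clinical Cmax, or 10 microM, descending half-log.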

[1] = second compound 0.1 µM, first compound 0.0316 µM
[2] = second compound 0.1 µM, first compound 0.1 µM
[3] = second compound 0.1 µM, first compound 0.316 µM
[4] = second compound 0.1 µM, first compound 1 µM
[5] = second compound 0.1 µM, first compound 3.16 µM
[6] = second compound 0.1 µM, first compound 10 µM
[7] = second compound 0.316 µM, first compound 0.0316 µM
[8] = second compound 0.316 µM, first compound 0.1 µM
[9] = second compound 0.316 µM, first compound 0.316 µM
[10] = second compound 0.316 µM, first compound 1 µM
[11] = second compound 0.316 µM, first compound 3.16 µM
[12] = second compound 0.316 µM, first compound 10 µM
[13] = second compound 1 µM, first compound 0.0316 µM
[14] = second compound 1 µM, first compound 0.1 µM
[15] = second compound 1 µM, first compound 0.316 µM
[16] = second compound 1 µM, first compound 1 µM
[17] = second compound 1 µM, first compound 3.16 µM
[18] = second compound 1 µM, first compound 10 µM
[19] = second compound 3.16 µM, first compound 0.0316 µM
[20] = second compound 3.16 µM, first compound 0.1 µM
[21] = second compound 3.16 µM, first compound 0.316 µM
[22] = second compound 3.16 µM, first compound 1 µM
[23] = second compound 3.16 µM, first compound 3.16 µM
[24] = second compound 3.16 µM, first compound 10 µM
[25] = second compound 10 µM, first compound 0.0316 µM
[26] = second compound 10 µM, first compound 0.1 µM
[27] = second compound 10 µM, first compound 0.316 µM
[28] = second compound 10 µM, first compound 1 µM
[29] = second compound 10 µM, first compound 3.16 µM
[30] = second compound 10 µM, first compound 10 µM
[31] = second compound 0.1 µM, first compound 0.01 µM
[32] = second compound 0.316 µM, first compound 0.01 µM
[33] = second compound 1 µM, first compound 0.01 µM
[34] = second compound 3.16 µM, first compound 0.01 µM
[35] = second compound 10 µM, first compound 0.01 µM
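Also: drug exposure lasted seven days after spheroids formed for three days.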
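For viability, T/C in this document: 100% = DMSO vehicle control viability.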

## CC(C)NCC(C(=O)N1CCN(c2ncnc3c2C(C)CC3O)CC1)c1ccc(Cl)cc1 (stereo not given) + CC1OCC2(CCN(c3cnc(Sc4ccnc(N)c4Cl)c(N)n3)CC2)C1N
Second compound 0.1 µM
  pIC50: > 7.50
Second compound 0.316 µM
  pIC50: > 7.50
Second compound 1 µM
  pIC50: > 7.50
Second compound 3.16 µM
  pIC50: > 7.50
Second compound 10 µM
  pIC50: > 7.50
[1]
  viability, T/C: 48.9%
[2]
  viability, T/C: 38.3%
[3]
  viability, T/C: 29.8%
[4]
  viability, T/C: 31.9%
[5]
  viability, T/C: 33.6%
[6]
  viability, T/C: 36.5%
[7]
  viability, T/C: 37.1%
[8]
  viability, T/C: 30.9%
[9]
  viability, T/C: 21.5%
[10]
  viability, T/C: 20.5%
[11]
  viability, T/C: 18.6%
[12]
  viability, T/C: 16.6%
[13]
  viability, T/C: 26.4%
[14]
  viability, T/C: 22.4%
[15]
  viability, T/C: 14.3%
[16]
  viability, T/C: 11.9%
[17]
  viability, T/C: 10%
[18]
  viability, T/C: 6.25%
[19]
  viability, T/C: 21.2%
[20]
  viability, T/C: 17.3%
[21]
  viability, T/C: 10.9%
[22]
  viability, T/C: 5.23%
[23]
  viability, T/C: 4.49%
[24]
  viability, T/C: 3.72%
[25]
  viability, T/C: 6.83%
[26]
  viability, T/C: 7.98%
[27]
  viability, T/C: 5.46%
[28]
  viability, T/C: 3.11%
[29]
  viability, T/C: 2.15%
[30]
  viability, T/C: 1.82%

## CC1COCCN1c1cc(-c2ccnn2C)c2ccnc(-c3ccn[nH]3)c2n1 (stereo not given) + CC1OCC2(CCN(c3cnc(Sc4ccnc(N)c4Cl)c(N)n3)CC2)C1N
Second compound 0.1 µM
  pIC50: > 8.00
Second compound 0.316 µM
  pIC50: > 8.00
Second compound 1 µM
  pIC50: > 8.00
Second compound 3.16 µM
  pIC50: > 8.00
Second compound 10 µM
  pIC50: > 8.00
[31]
  viability, T/C: 59.9%
[1]
  viability, T/C: 41.8%
[2]
  viability, T/C: 32%
[3]
  viability, T/C: 36.3%
[4]
  viability, T/C: 41.7%
[5]
  viability, T/C: 48.2%
[32]
  viability, T/C: 39%
[7]
  viability, T/C: 31.8%
[8]
  viability, T/C: 24.9%
[9]
  viability, T/C: 18.5%
[10]
  viability, T/C: 21.6%
[11]
  viability, T/C: 27.5%
[33]
  viability, T/C: 28.2%
[13]
  viability, T/C: 23.4%
[14]
  viability, T/C: 19%
[15]
  viability, T/C: 15.3%
[16]
  viability, T/C: 10.2%
[17]
  viability, T/C: 9.22%
[34]
  viability, T/C: 23%
[19]
  viability, T/C: 16.3%
[20]
  viability, T/C: 10.9%
[21]
  viability, T/C: 7.95%
[22]
  viability, T/C: 8.32%
[23]
  viability, T/C: 3.11%
[35]
  viability, T/C: 14.4%
[25]
  viability, T/C: 12%
[26]
  viability, T/C: 7.07%
[27]
  viability, T/C: 3.98%
[28]
  viability, T/C: 2.99%
[29]
  viability, T/C: 1.57%

## CCN1CCN(Cc2ccc(Nc3ncc(F)c(-c4cc(F)c5nc(C)n(C(C)C)c5c4)n3)nc2)CC1 + CC1OCC2(CCN(c3cnc(Sc4ccnc(N)c4Cl)c(N)n3)CC2)C1N
Second compound 0.1 µM
  pIC50: 8.19
Second compound 0.316 µM
  pIC50: > 8.50
Second compound 1 µM
  pIC50: > 8.50
Second compound 3.16 µM
  pIC50: > 8.50
Second compound 10 µM
  pIC50: > 8.50
Second compound 0.1 µM, first compound 0.00316 µM
  viability, T/C: 54.8%
[31]
  viability, T/C: 48.2%
[1]
  viability, T/C: 41.1%
[2]
  viability, T/C: 41.2%
[3]
  viability, T/C: 39.9%
[4]
  viability, T/C: 39.1%
Second compound 0.316 µM, first compound 0.00316 µM
  viability, T/C: 35.5%
[32]
  viability, T/C: 30.2%
[7]
  viability, T/C: 27.7%
[8]
  viability, T/C: 25.5%
[9]
  viability, T/C: 23%
[10]
  viability, T/C: 24.2%
Second compound 1 µM, first compound 0.00316 µM
  viability, T/C: 26%
[33]
  viability, T/C: 23.1%
[13]
  viability, T/C: 20.7%
[14]
  viability, T/C: 17.7%
[15]
  viability, T/C: 16.5%
[16]
  viability, T/C: 20.5%
Second compound 3.16 µM, first compound 0.00316 µM
  viability, T/C: 15.2%
[34]
  viability, T/C: 16.7%
[19]
  viability, T/C: 16.1%
[20]
  viability, T/C: 10.6%
[21]
  viability, T/C: 10.9%
[22]
  viability, T/C: 14.9%
Second compound 10 µM, first compound 0.00316 µM
  viability, T/C: 10.4%
[35]
  viability, T/C: 7.73%
[25]
  viability, T/C: 6.15%
[26]
  viability, T/C: 6.13%
[27]
  viability, T/C: 7.13%
[28]
  viability, T/C: 15.3%

## CCNC(=O)CC1N=C(c2ccc(Cl)cc2)c2cc(OC)ccc2-n2c(C)nnc21 (stereo not given) + CC1OCC2(CCN(c3cnc(Sc4ccnc(N)c4Cl)c(N)n3)CC2)C1N
Second compound 0.1 µM
  pIC50: 6.56
Second compound 0.316 µM
  pIC50: 7.40
Second compound 1 µM
  pIC50: > 7.50
Second compound 3.16 µM
  pIC50: > 7.50
Second compound 10 µM
  pIC50: > 7.50
[1]
  viability, T/C: 69.1%
[2]
  viability, T/C: 71.4%
[3]
  viability, T/C: 46.2%
[4]
  viability, T/C: 30.9%
[5]
  viability, T/C: 23.5%
[6]
  viability, T/C: 23.8%
[7]
  viability, T/C: 48.4%
[8]
  viability, T/C: 50.9%
[9]
  viability, T/C: 32%
[10]
  viability, T/C: 20.2%
[11]
  viability, T/C: 14.3%
[12]
  viability, T/C: 14.1%
[13]
  viability, T/C: 34.5%
[14]
  viability, T/C: 28.7%
[15]
  viability, T/C: 21.5%
[16]
  viability, T/C: 11.2%
[17]
  viability, T/C: 8.48%
[18]
  viability, T/C: 8.48%
[19]
  viability, T/C: 22.7%
[20]
  viability, T/C: 18.6%
[21]
  viability, T/C: 12.2%
[22]
  viability, T/C: 7.87%
[23]
  viability, T/C: 4.55%
[24]
  viability, T/C: 4.52%
[25]
  viability, T/C: 10.9%
[26]
  viability, T/C: 11.7%
[27]
  viability, T/C: 7.18%
[28]
  viability, T/C: 2.24%
[29]
  viability, T/C: 1.59%
[30]
  viability, T/C: 0.97%

## Cn1nccc1Nc1nccc(-c2cc3c(s2)C(C)(C)N(CCN2CCOCC2)C3=O)n1 + CC1OCC2(CCN(c3cnc(Sc4ccnc(N)c4Cl)c(N)n3)CC2)C1N
Second compound 0.1 µM
  pIC50: 6.74
Second compound 0.316 µM
  pIC50: > 7.50
Second compound 1 µM
  pIC50: > 7.50
Second compound 3.16 µM
  pIC50: > 7.50
Second compound 10 µM
  pIC50: > 7.50
[1]
  viability, T/C: 60.6%
[2]
  viability, T/C: 52%
[3]
  viability, T/C: 46.3%
[4]
  viability, T/C: 38.9%
[5]
  viability, T/C: 24.1%
[6]
  viability, T/C: 23.4%
[7]
  viability, T/C: 36.8%
[8]
  viability, T/C: 35.9%
[9]
  viability, T/C: 29.7%
[10]
  viability, T/C: 24.3%
[11]
  viability, T/C: 21.5%
[12]
  viability, T/C: 18.2%
[13]
  viability, T/C: 32.6%
[14]
  viability, T/C: 29.5%
[15]
  viability, T/C: 21%
[16]
  viability, T/C: 18.3%
[17]
  viability, T/C: 16.4%
[18]
  viability, T/C: 12.4%
[19]
  viability, T/C: 18.6%
[20]
  viability, T/C: 19.6%
[21]
  viability, T/C: 17.9%
[22]
  viability, T/C: 9.57%
[23]
  viability, T/C: 7.17%
[24]
  viability, T/C: 10.8%
[25]
  viability, T/C: 10.2%
[26]
  viability, T/C: 10.7%
[27]
  viability, T/C: 10.5%
[28]
  viability, T/C: 4.14%
[29]
  viability, T/C: 3.55%
[30]
  viability, T/C: 5.13%

## CC(=O)OC12COC1CC(O)C1(C)C(=O)C(O)C3=C(C)C(OC(=O)C(O)C(NC(=O)OC(C)(C)C)c4ccccc4)CC(O)(C(OC(=O)c4ccccc4)C21)C3(C)C (stereo not given) + CNCc1ccccc1-c1csc(C(C)Nc2nc(C)nc3cc(OC)c(OC)cc23)c1
Second compound 0.1 µM
  pIC50: > 8.00
Second compound 0.316 µM
  pIC50: > 8.00
Second compound 1 µM
  pIC50: > 8.00
Second compound 3.16 µM
  pIC50: > 8.00
Second compound 10 µM
  pIC50: > 8.00
[31]
  viability, T/C: 48.5%
[1]
  viability, T/C: 46.4%
[2]
  viability, T/C: 43.9%
[3]
  viability, T/C: 47.1%
[4]
  viability, T/C: 61.4%
[5]
  viability, T/C: 53.6%
[32]
  viability, T/C: 35.6%
[7]
  viability, T/C: 34.3%
[8]
  viability, T/C: 34.4%
[9]
  viability, T/C: 42.4%
[10]
  viability, T/C: 39.5%
[11]
  viability, T/C: 40%
[33]
  viability, T/C: 44%
[13]
  viability, T/C: 40.9%
[14]
  viability, T/C: 42.2%
[15]
  viability, T/C: 48.3%
[16]
  viability, T/C: 48.1%
[17]
  viability, T/C: 42.1%
[34]
  viability, T/C: 24%
[19]
  viability, T/C: 0.94%
[20]
  viability, T/C: 0.36%
[21]
  viability, T/C: 0.26%
[22]
  viability, T/C: 0.19%
[23]
  viability, T/C: 37.5%
[35]
  viability, T/C: 0.6%
[25]
  viability, T/C: 0.13%
[26]
  viability, T/C: 0.43%
[27]
  viability, T/C: 0.19%
[28]
  viability, T/C: 42.7%
[29]
  viability, T/C: 0.85%
